Where a name gives a salt, the structure may show the parent alone.
Tested on: HMOX1
Test: HMOX1 Protein Assay (immunostaining of HO-1 in NHLF cells, GE InCell 1000)
Assay type: cell-based
Conditions: Homo sapiens, fold change above DMSO treated cells, 16 h; for fold induction at 5 µM: 5 μM compound; for fold induction at 3 µM: 3 μM compound (asterisk)
How it was run: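 NHLF cells seeded overnight in FGM-2, then exposed to compound or DMSO vehicle for 16 h, fixed, and immunostained for HO-1 with Hoechst nuclear counterstain; imaged on InCell 1000. Values are fold change over DMSO-treated cells, generally at 5 μM (0.8% DMSO), with asterisked entries at 3 μM.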

Cn1c(Nc2nc3ccc(Cl)cc3s2)nc2cc(C(=O)N[C@@H]3CCN(CCO)C3)ccc21 [Example 292, 2-(6-Chloro-benzothiazol-2-ylamino)-1-methyl-1H-benzoimidazole-5-carboxylic acid [(R)-1-(2-hydroxy-ethyl)-pyrrolidin-3-yl]-amide]
fold induction at 5 µM: 39

Cn1c(Nc2nc3ccc(C(F)(F)F)cc3s2)nc2cc(C(=O)NCCOCCF)ccc21 [Example 257, 1-Methyl-2-(6-trifluoromethyl-benzothiazol-2-ylamino)-1H-benzoimidazole-5-carboxylic acid [2-(2-fluoro-ethoxy)-ethyl]-amide]
fold induction at 5 µM: 21.9

COCCn1c(Nc2nc3ccc(Cl)cc3s2)nc2cc(C(=O)NCC(=O)N3CCN(C)CC3)ccc21 [Example 428, 2-(6-Chloro-benzothiazol-2-ylamino)-1-(2-methoxy-ethyl)-1H-benzoimidazole-5-carboxylic acid [2-(4-methyl-piperazin-1-yl)-2-oxo-ethyl]-amide]
fold induction at 5 µM: 24.4

C[C@H](NC(=O)c1ccc2c(c1)nc(Nc1nc3ccc(Cl)cc3s1)n2C)C(=O)N(C)C [Example 462, 2-(6-Chloro-benzothiazol-2-ylamino)-1-methyl-1H-benzoimidazole-5-carboxylic acid ((S)-1-dimethylcarbamoyl-ethyl)-amide]
fold induction at 3 µM: 20

Cn1c(Nc2nc3ccc(OC(F)(F)F)cc3s2)nc2cc(C(=O)NCC3CCCO3)ccc21 (stereo not drawn) [Example 18, 1-Methyl-2-(6-trifluoromethoxy-benzothiazol-2-ylamino)-1H-benzoimidazole-5-carboxylic acid (tetrahydro-furan-2-ylmethyl)-amide]
fold induction at 5 µM: 20.1

Cn1c(Nc2nc3ccc(OC(F)(F)F)cc3s2)nc2cc(C(=O)NCCOCCN)ccc21 [Example 268, 1-Methyl-2-(6-trifluoromethoxy-benzothiazol-2-ylamino)-1H-benzoimidazole-5-carboxylic acid [2-(2-amino-ethoxy)-ethyl]-amide]
fold induction at 5 µM: 28.4

C[C@@H](NC(=O)c1ccc2c(c1)nc(Nc1nc3ccc(Cl)cc3s1)n2C)C(=O)N1CCOCC1 [Example 471, 2-(6-Chloro-benzothiazol-2-ylamino)-1-methyl-1H-benzoimidazole-5-carboxylic acid ((R)-1-methyl-2-morpholin-4-yl-2-oxo-ethyl)-amide]
fold induction at 3 µM: 17.4

Cn1c(Nc2nc3ccc(Cl)cc3s2)nc2cc(C(=O)NCCCCO)ccc21 [Example 220, 2-(6-Chloro-benzothiazol-2-ylamino)-1-methyl-1H-benzoimidazole-5-carboxylic acid (4-hydroxy-butyl)-amide]
fold induction at 5 µM: 61.9

CC(C)n1c(Nc2nc3ccc(OC(F)(F)F)cc3s2)nc2cc(C(=O)O)ccc21 [Example 159, 1-Isopropyl-2-(6-trifluoromethoxy-benzothiazol-2-ylamino)-1H-benzoimidazole-5-carboxylic acid]
fold induction at 5 µM: 26.7

CN(C)C(=O)CCNC(=O)c1ccc2c(c1)nc(Nc1nc3ccc(C(F)(F)F)cc3s1)n2C [Example 372, 1-Methyl-2-(6-trifluoromethyl-benzothiazol-2-ylamino)-1H-benzoimidazole-5-carboxylic acid (2-dimethylcarbamoyl-ethyl)-amide]
fold induction at 3 µM: 25.5

Cn1c(Nc2nc3ccc(OC(F)(F)F)cc3s2)nc2cc(C(=O)NCCOCCO)ccc21 [Example 46, 1-Methyl-2-(6-trifluoromethoxy-benzothiazol-2-ylamino)-1H-benzoimidazole-5-carboxylic acid [2-(2-hydroxy-ethoxy)-ethyl]-amide]
fold induction at 5 µM: 17.9

Cn1c(Nc2nc3ccc(Cl)cc3s2)nc2cc(C(=O)NCCCN)ccc21 [Example 345, 2-(6-Chloro-benzothiazol-2-ylamino)-1-methyl-1H-benzoimidazole-5-carboxylic acid (3-amino-propyl)-amide hydrochloride]
fold induction at 3 µM: 26.4

Cn1c(Nc2nc3ccc(OC(F)(F)F)cc3s2)nc2cc(C(=O)NC3(C(=O)O)CC3)ccc21 [Example 147, 1-{[1-Methyl-2-(6-trifluoromethoxy-benzothiazol-2-ylamino)-1H-benzimidazole-5-carbonyl]-amino}-cyclopropanecarboxylic acid]
fold induction at 5 µM: 1.8

Cn1c(Nc2nc3ccc(OC(F)(F)F)cc3s2)nc2cc(C(=O)NCC(=O)N3CCC(C#N)CC3)ccc21 [Example 450, 1-Methyl-2-(6-trifluoromethoxy-benzothiazol-2-ylamino)-1H-benzoimidazole-5-carboxylic acid [2-(4-cyano-piperidin-1-yl)-2-oxo-ethyl]-amide]
fold induction at 3 µM: 51

CCNC(=O)[C@H](C)NC(=O)c1ccc2c(c1)nc(Nc1nc3ccc(OC(F)(F)F)cc3s1)n2C [Example 81, 1-Methyl-2-(6-trifluoromethoxy-benzothiazol-2-ylamino)-1H-benzoimidazole-5-carboxylic acid ((S)-1-ethylcarbamoyl-ethyl)-amide]
fold induction at 5 µM: 17

CN1CCN(C(=O)CCCNC(=O)c2ccc3c(c2)nc(Nc2nc4ccc(Cl)cc4s2)n3C)CC1 [Example 377, 2-(6-Chloro-benzothiazol-2-ylamino)-1-methyl-1H-benzoimidazole-5-carboxylic acid [4-(4-methyl-piperazin-1-yl)-4-oxo-butyl]-amide]
fold induction at 5 µM: 20.3

Cn1c(Nc2nc3ccc(C(F)(F)F)cc3s2)nc2cc(C(=O)NCCN3CCOCC3)ccc21 [Example 341, 1-Methyl-2-(6-trifluoromethyl-benzothiazol-2-ylamino)-1H-benzoimidazole-5-carboxylic acid (2-morpholin-4-yl-ethyl)-amide]
fold induction at 3 µM: 32.8

Cn1c(Nc2nc3ccc(OC(F)(F)F)cc3s2)nc2cc(C(=O)NC[C@H]3CC[C@H](O)CC3)ccc21 [Example 232, 1-Methyl-2-(6-trifluoromethoxy-benzothiazol-2-ylamino)-1H-benzoimidazole-5-carboxylic acid (trans-4-hydroxy-cyclohexylmethyl)-amide]
fold induction at 5 µM: 33

Cn1c(Nc2nc3ccc(OC(F)(F)F)cc3s2)nc2ccc(CC(N)=O)cc21 [Example 202, 2-[1-Methyl-2-(6-trifluoromethoxy-benzothiazol-2-ylamino)-1H-benzoimidazol-6-yl]-acetamide]
fold induction at 5 µM: 15.6

Cn1c(Nc2nc3ccc(S(C)(=O)=O)cc3s2)nc2cc(C(=O)O)ccc21 [Example 119, 2-(6-Methanesulfonyl-benzothiazol-2-ylamino)-1-methyl-1H-benzimidazole-5-carboxylic acid]
fold induction at 5 µM: 22.1

C[C@@H](O)CNC(=O)c1ccc2c(c1)nc(Nc1nc3ccc(Cl)cc3s1)n2C [Example 203, 2-(6-Chloro-benzothiazol-2-ylamino)-1-methyl-1H-benzoimidazole-5-carboxylic acid ((R)-2-hydroxy-propyl)-amide]
fold induction at 3 µM: 18.7

COCCn1c(Nc2nc3ccc(OC(F)(F)F)cc3s2)nc2cc(C(=O)NCC(=O)N(C)C)ccc21 [Example 188, 1-(2-Methoxy-ethyl)-2-(6-trifluoromethoxy-benzothiazol-2-ylamino)-1H-benzoimidazole-5-carboxylic acid dimethylcarbamoylmethyl-amide]
fold induction at 5 µM: 18.3

CNCCOCCNC(=O)c1ccc2c(c1)nc(Nc1nc3ccc(OC(F)(F)F)cc3s1)n2C [Example 271, 1-Methyl-2-(6-trifluoromethoxy-benzothiazol-2-ylamino)-1H-benzoimidazole-5-carboxylic acid [2-(2-methylamino-ethoxy)-ethyl]-amide hydrochloride]
fold induction at 5 µM: 69.9

CN1CC[C@@H](NC(=O)c2ccc3c(c2)nc(Nc2nc4ccc(Cl)cc4s2)n3C)C1 [Example 316, 2-(6-Chloro-benzothiazol-2-ylamino)-1-methyl-1H-benzoimidazole-5-carboxylic acid ((R)-1-methyl-pyrrolidin-3-yl)-amide]
fold induction at 5 µM: 18.1

Cn1c(Nc2nc3ccc(OC(F)(F)F)cc3s2)nc2cc(C(=O)NCC(=O)N3CC[C@H](N)C3)ccc21 [Example 412, 1-Methyl-2-(6-trifluoromethoxy-benzothiazol-2-ylamino)-1H-benzoimidazole-5-carboxylic acid [2-((S)-3-amino-pyrrolidin-1-yl)-2-oxo-ethyl]-amide hydrochloride]
fold induction at 5 µM: 47.6

Cn1c(Nc2nc3ccc(OC(F)(F)F)cc3s2)nc2cc(C(=O)NCCC3CCC(O)CC3)ccc21 (stereo not drawn) [Example 253, 1-Methyl-2-(6-trifluoromethoxy-benzothiazol-2-ylamino)-1H-benzoimidazole-5-carboxylic acid [2-(4-hydroxy-cyclohexyl)-ethyl]-amide]
fold induction at 5 µM: 26.6

CO[C@H]1CCN(C(=O)CNC(=O)c2ccc3c(c2)nc(Nc2nc4ccc(Cl)cc4s2)n3C)C1 [Example 409, 2-(6-Chloro-benzothiazol-2-ylamino)-1-methyl-1H-benzoimidazole-5-carboxylic acid [2-((S)-3-methoxy-pyrrolidin-1-yl)-2-oxo-ethyl]-amide]
fold induction at 3 µM: 29

CCn1c(Nc2nc3ccc(Oc4cccnc4)cc3s2)nc2cc(C(=O)NCCOC)ccc21 [Example 191, 1-Ethyl-2-[6-(pyridin-3-yloxy)-benzothiazol-2-ylamino]-1H-benzoimidazole-5-carboxylic acid (2-methoxy-ethyl)-amide]
fold induction at 5 µM: 33.8

Cn1c(Nc2nc3ccc(Cl)cc3s2)nc2cc(C(=O)NC3CCN(CCC(=O)O)C3)ccc21 (stereo not drawn) [Example 299, 3-(3-{[2-(6-Chloro-benzothiazol-2-ylamino)-1-methyl-1H-benzoimidazole-5-carbonyl]-amino}-pyrrolidin-1-yl)-propionic acid]
fold induction at 5 µM: 16.7

Cn1c(Nc2nc3ccc(OC(F)(F)F)cc3s2)nc2cc(C(=O)N(CCO)CCO)ccc21 [Example 284, 1-Methyl-2-(6-trifluoromethoxy-benzothiazol-2-ylamino)-1H-benzoimidazole-5-carboxylic acid bis-(2-hydroxy-ethyl)-amide]
fold induction at 5 µM: 47.4

Source: patent US8759535B2, “Substituted fused imidazole derivatives, pharmaceutical compositions, and methods of use thereof” (High Point Pharmaceuticals, LLC, priority 2010, dated 2014)
